Measurements published in patent publication US9149475B2, “Protein kinase C inhibitors and uses thereof” (Rigel Pharmaceuticals, Inc., priority 2009, dated 2015).

Each compound was assayed on Human primary T cells (assay: IL-2 ELISA, human primary T cell, anti-CD3+CD28+ (whole cell assay)). Conditions: Homo sapiens, T-cell, 24 h, human primary T cells stimulated with anti-CD3 + anti-CD28, 24 hours.
Type: cell-based
In short: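 IL-2 secreted over 24 h at 37° C was quantified by ELISA after plate-bound αCD3 (1 μg/ml) and αCD28 (5 μg/ml) stimulation, or PMA (0.5 ng/ml) with ionomycin (0.1 μM) as counter-screen. Cells were IL-2-starved primary human T cells, expanded from volunteer PBMC and exposed to compound for 1 hr beforehand.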

Row | Structure (SMILES) | IC50 [nM]
1 | CC(C)Oc1ncc(Nc2ncc(C(N)=O)c(NC3CC(C)(C)NC(C)(C)C3)n2)cc1-c1nnnn1C(C)C [Compound I-134, 2-(6-isopropoxy-5-(1-isopropyl-1H-tetrazol-5-yl)pyridin-3-ylamino)-4-(2,2,6,6-tetramethylpiperidin-4-ylamino)pyrimidine-5-carboxamide] | > 1000
2 | Cc1ccc(C)n1-c1cc(Nc2ncc(F)c(NC3CC(C)(C)N(C)C(C)(C)C3)n2)ccc1OC(C)C [Compound I-15, N2-(4-isopropyloxy-3-(2,5-dimethyl-1H-pyrrol-1-yl)phenyl)-5-fluoro-N4-(1,2,2,6,6-pentamethylpiperidin-4-yl)pyrimidine-2,4-diamine] | 500 to 1000
3 | CN1C(C)(C)CC(Nc2nc(Nc3cnc(OCCN4CCCC4)c(OC(F)F)c3)ncc2F)CC1(C)C [Compound I-142, N2-(5-(difluoromethoxy)-6-(2-(pyrrolidin-1-yl)ethoxy)pyridin-3-yl)-5-fluoro-N4-(1,2,2,6,6-pentamethylpiperidin-4-yl)pyrimidine-2,4-diamine] | > 1000
4 | CCOc1ccc(Nc2ncc(F)c(NC3CC(C)(C)NC(C)(C)C3)n2)cc1OC(F)F [Compound I-108, N2-(3-(difluoromethoxy)-4-ethoxyphenyl)-5-fluoro-N4-(2,2,6,6-tetramethylpiperidin-4-yl)pyrimidine-2,4-diamine] | < 250
5 | CC1(C)CC(Nc2nc(Nc3ccc(OC(C)(C)CN4CCOCC4)c(OC(F)F)c3)ncc2F)CC(C)(C)N1 [Compound I-122, N2-(4-(2-methyl-1-morpholinopropan-2-yloxy)-3-(difluoromethoxy)phenyl)-5-fluoro-N4-(2,2,6,6-tetramethylpiperidin-4-yl)pyrimidine-2,4-diamine] | > 1000
6 | Cc1nnnn1-c1cc(Nc2ncc(C#N)c(NC3CC(C)(C)NC(C)(C)C3)n2)ccc1F [Compound I-18, 4-(2,2,6,6-tetramethylpiperidin-4-ylamino)-2-(4-fluoro-3-(5-methyl-1H-tetrazol-1-yl)phenylamino)pyrimidine-5-carbonitrile] | 250 to 500
7 | CN1C(C)(C)CC(Nc2nc(Nc3ccc(OCCn4cncn4)c(OC(F)F)c3)ncc2C#N)CC1(C)C [Compound I-54, 4-(1,2,2,6,6-pentamethylpiperidin-4-ylamino)-2-(4-(2-(1H-1,2,4-triazol-1-yl)ethoxy)-3-(difluoromethoxy)phenylamino)pyrimidine-5-carbonitrile] | 500 to 1000
8 | CC1(C)CC(Nc2nc(Nc3ccc(OCCN4CCOCC4)c(OC(F)F)c3)ncc2F)CC(C)(C)N1 [Compound I-120, N2-(4-(2-morpholinoethoxy)-3-(difluoromethoxy)phenyl)-5-fluoro-N4-(2,2,6,6-tetramethylpiperidin-4-yl)pyrimidine-2,4-diamine] | > 1000
9 | CN1C(C)(C)CC(Nc2nc(Nc3ccc(OCCN4CCOCC4)c(OC(F)F)c3)ncc2F)CC1(C)C [Compound I-121, N2-(4-(2-morpholinoethoxy)-3-(difluoromethoxy)phenyl)-5-fluoro-N4-(1,2,2,6,6-pentamethylpiperidin-4-yl)pyrimidine-2,4-diamine] | 500 to 1000
10 | CN1C(C)(C)CC(Nc2nc(Nc3ccc(OCCCn4cccc4)c(OC(F)F)c3)ncc2F)CC1(C)C [Compound I-41, N2-(4-(3-(1H-pyrrol-1-yl)propoxy)-3-(difluoromethoxy)phenyl)-5-fluoro-N4-(1,2,2,6,6-pentamethylpiperidin-4-yl)pyrimidine-2,4-diamine] | < 250

The remaining lines, values ahead:

Row | IC50 [nM] | Structure (SMILES)
11 | < 250 | CC(=O)N1CCCC(Oc2ccc(Nc3ncc(F)c(NC4CC(C)(C)N(C)C(C)(C)C4)n3)cc2OC(F)F)CC1 (stereo not shown) [III-43, 1-(4-(2-(difluoromethoxy)-4-(5-fluoro-4-(1,2,2,6,6-pentamethylpiperidin-4-ylamino)pyrimidin-2-ylamino)phenoxy)azepan-1-yl)ethanone]
12 | < 250 | CN1C(C)(C)CC(Nc2nc(Nc3cc(Cl)cc(-c4nnnn4C)c3)ncc2F)CC1(C)C [III-135, N2-(3-chloro-5-(1-methyl-1H-tetrazol-5-yl)phenyl)-5-fluoro-N4-(1,2,2,6,6-pentamethylpiperidin-4-yl)pyrimidine-2,4-diamine]
13 | > 1000 | CN1C(C)(C)CC(Nc2nc(Nc3ccc(OC4CCN(CC(N)=O)CC4)c(F)c3)ncc2F)CC1(C)C [III-33, 2-(4-(2-Fluoro-4-(5-fluoro-4-(1,2,2,6,6-pentamethylpiperidin-4-ylamino)pyrimidin-2-ylamino)phenoxy)piperidin-1-yl)acetamide]
14 | > 1000 | CC(C)Oc1ccc(Nc2ncc(F)c(NC3CC(C)(C)N(C)C(C)(C)C3)n2)cc1N(C)C(C)C [III-66, 5-fluoro-N2-(4-isopropoxy-3-(isopropyl(methyl)amino)phenyl)-N4-(1,2,2,6,6-pentamethylpiperidin-4-yl)pyrimidine-2,4-diamine]
15 | < 250 | CN1C(C)(C)CC(Nc2nc(Nc3cc(-c4nnnn4C)cc(C(F)(F)F)c3)ncc2F)CC1(C)C [III-141, 5-fluoro-N2-(3-(1-methyl-1H-tetrazol-5-yl)-5-(trifluoromethyl)phenyl)-N4-(1,2,2,6,6-pentamethylpiperidin-4-yl)pyrimidine-2,4-diamine]
16 | 500 to 1000 | CC(C)n1nnnc1-c1cccc(Nc2ncc(F)c(NC3CC(C)(C)NC(C)(C)C3)n2)c1 [III-71, 5-fluoro-N2-(3-(1-isopropyl-1H-tetrazol-5-yl)phenyl)-N4-(2,2,6,6-tetramethylpiperidin-4-yl)pyrimidine-2,4-diamine]
17 | 250 to 500 | CN1C(C)(C)CC(Nc2nc(Nc3cc(F)c(OC4CCN(CCO)CC4)c(F)c3)ncc2F)CC1(C)C [III-60, 2-(4-(2,6-difluoro-4-(5-fluoro-4-(1,2,2,6,6-pentamethylpiperidin-4-ylamino)pyrimidin-2-ylamino)phenoxy)piperidin-1-yl)ethanol]
18 | 250 to 500 | CN1C(C)(C)CC(Nc2nc(Nc3cccc(-c4nnnn4CCF)c3)ncc2F)CC1(C)C [III-74, 5-fluoro-N2-(3-(1-(2-fluoroethyl)-1H-tetrazol-5-yl)phenyl)-N4-(1,2,2,6,6-pentamethylpiperidin-4-yl)pyrimidine-2,4-diamine]
19 | 500 to 1000 | CC1(C)CC(Nc2nc(Nc3cc(F)c(OC4CCN(CCOCc5ccccc5)CC4)c(F)c3)ncc2F)CC(C)(C)N1 [III-55, N2-(4-(1-(2-(benzyloxy)ethyl)piperidin-4-yloxy)-3,5-difluorophenyl)-5-fluoro-N4-(2,2,6,6-tetramethylpiperidin-4-yl)pyrimidine-2,4-diamine]
20 | 250 to 500 | CN1C(C)(C)CC(Nc2nc(Nc3ccc(OC4CCN(Cc5ccccc5)CC4)c(OC(F)F)c3)ncc2F)CC1(C)C [III-52, N2-(4-(1-benzylpiperidin-4-yloxy)-3-(difluoromethoxy)phenyl)-5-fluoro-N4-(1,2,2,6,6-pentamethylpiperidin-4-yl)pyrimidine-2,4-diamine]
21 | 500 to 1000 | CC(C)N1CCC(Oc2ccc(Nc3ncc(F)c(NC4CC(C)(C)NC(C)(C)C4)n3)cc2OC(F)F)C(F)(F)C1 (stereo not shown) [III-108, N2-(4-(3,3-difluoro-1-isopropylpiperidin-4-yloxy)-3-(difluoromethoxy)phenyl)-5-fluoro-N4-(2,2,6,6-tetramethylpiperidin-4-yl)pyrimidine-2,4-diamine]

Same assay, conditions: human primary T cells stimulated with anti-CD3 + anti-CD28, 24 hours

Row | IC50 [nM] | Structure (SMILES)
22 | < 250 | CN1C(C)(C)CC(Nc2nc(Nc3cccc(-n4nnnc4SCC(F)(F)F)c3)ncc2F)CC1(C)C [Compound I-69, 5-fluoro-N4-(1,2,2,6,6-pentamethylpiperidin-4-yl)-N2-{3-[5-(2,2,2-trifluoroethyl)thio]-1H-tetrazol-1-yl}phenyl-2,4-pyrimidinediamine]
